Laboratory results reported in article PMC5218480 (PLoS ONE, 2017).

Test system: MV-4-11 cells
Test: Gene expression microarray analysis (Affymetrix PrimeView) and GSEA
Type: cell-based, human
Design: RFU PODN (11730768_x_at) / Fold change /veh PODN (11730768_x_at) / RFU LINC00158 (11744669_a_at) / Fold change /veh LINC00158 (11744669_a_at) / RFU DUSP10 (11751237_a_at) / Fold change /veh DUSP10 (11751237_a_at) / RFU ID3 (11757404_x_at) / Fold change /veh ID3 (11757404_x_at) / RFU PLEKHG5 (11737974_s_at) / Fold change /veh PLEKHG5 (11737974_s_at) / RFU LRRC4B (11730491_at) / Fold change /veh LRRC4B (11730491_at) / RFU GIMAP4 (11747438_a_at) / Fold change /veh GIMAP4 (11747438_a_at) / RFU KRT8 (11758183_x_at) / Fold change /veh KRT8 (11758183_x_at) / RFU CNN1 (11734310_a_at) / Fold change /veh CNN1 (11734310_a_at) / RFU VPS37D (11726825_at) / Fold change /veh VPS37D (11726825_at) / RFU C10orf10 (11716522_x_at) / Fold change /veh C10orf10 (11716522_x_at) / RFU KIR2DL2 /// KIR2DL4 /// KIR2DL5A /// KIR2DL5B /// KIR2DS1 /// KIR2DS2 /// KIR2DS3 /// KIR2DS4 /// KIR3DL3 /// KIR3DL3 /// KIR3DS1 (11738374_at) / Fold change /veh KIR2DL2 /// KIR2DL4 /// KIR2DL5A /// KIR2DL5B /// KIR2DS1 /// KIR2DS2 /// KIR2DS3 /// KIR2DS4 /// KIR3DL3 /// KIR3DL3 /// KIR3DS1 (11738374_at) / RFU C1QL1 (11718748_at) / Fold change /veh C1QL1 (11718748_at) / RFU TMPRSS4 (11747572_a_at) / Fold change /veh TMPRSS4 (11747572_a_at) / RFU HAMP (11756126_x_at) / Fold change /veh HAMP (11756126_x_at) / RFU RNFT2 (11725882_a_at) / Fold change /veh RNFT2 (11725882_a_at) / RFU NR4A2 (11747474_a_at) / Fold change /veh NR4A2 (11747474_a_at) / RFU ABCC12 (11746883_a_at) / Fold change /veh ABCC12 (11746883_a_at) / RFU TMEM136 (11760407_x_at) / Fold change /veh TMEM136 (11760407_x_at) / RFU CLDN22 /// WWC2 (11732394_at) / Fold change /veh CLDN22 /// WWC2 (11732394_at) / RFU HLA-DPB1 (11760878_x_at) / Fold change /veh HLA-DPB1 (11760878_x_at) / RFU SPINT1 (11716480_a_at) / Fold change /veh SPINT1 (11716480_a_at) / RFU GAP43 (11754022_s_at) / Fold change /veh GAP43 (11754022_s_at) / RFU A4GNT (11735810_at) / Fold change /veh A4GNT (11735810_at) / RFU PRB3 (11715151_x_at) / Fold change /veh PRB3 (11715151_x_at) / RFU TUBB4B (11761932_at) / Fold change /veh TUBB4B (11761932_at) / RFU CAPN14 (11732068_a_at) / Fold change /veh CAPN14 (11732068_a_at) / RFU TMCC2 (11721928_a_at) / Fold change /veh TMCC2 (11721928_a_at) / RFU IRGQ (11745062_a_at) / Fold change /veh IRGQ (11745062_a_at) / RFU FAM174B (11720279_a_at) / Fold change /veh FAM174B (11720279_a_at) / RFU TMPRSS4 (11748680_a_at) / Fold change /veh TMPRSS4 (11748680_a_at) / RFU FAM212B (11763350_a_at) / Fold change /veh FAM212B (11763350_a_at) / RFU PLEKHG5 (11743358_a_at) / Fold change /veh PLEKHG5 (11743358_a_at) / RFU ZSCAN30 (11745921_a_at) / Fold change /veh ZSCAN30 (11745921_a_at) / RFU CMKLR1 (11741424_a_at) / Fold change /veh CMKLR1 (11741424_a_at) / RFU LOC101060620 /// MAPK8IP1 (11723275_at) / Fold change /veh LOC101060620 /// MAPK8IP1 (11723275_at) / RFU SPTSSB (11747773_x_at) / Fold change /veh SPTSSB (11747773_x_at) / RFU PRSS12 (11739890_at) / Fold change /veh PRSS12 (11739890_at) / RFU BIN1 (11741810_x_at) / Fold change /veh BIN1 (11741810_x_at) / RFU WNT11 (11732464_a_at) / Fold change /veh WNT11 (11732464_a_at) / RFU C10orf10 (11716521_a_at) / Fold change /veh C10orf10 (11716521_a_at) / RFU C5orf56 (11738089_at) / Fold change /veh C5orf56 (11738089_at) / RFU CYB561 (11721691_x_at) / Fold change /veh CYB561 (11721691_x_at) / RFU ANKRD19P (11752326_a_at) / Fold change /veh ANKRD19P (11752326_a_at) / RFU OR2T12 /// OR2T33 /// OR2T8 (11738714_s_at) / Fold change /veh OR2T12 /// OR2T33 /// OR2T8 (11738714_s_at) / RFU VCAN (11748164_a_at) / Fold change /veh VCAN (11748164_a_at) / RFU JSRP1 (11732532_at) / Fold change /veh JSRP1 (11732532_at) / RFU KRTAP10-11 (11738290_x_at) / Fold change /veh KRTAP10-11 (11738290_x_at) / RFU MYO3A (11730013_a_at) / Fold change /veh MYO3A (11730013_a_at) / RFU EBF3 (11725865_a_at) / Fold change /veh EBF3 (11725865_a_at) / RFU CAMK2N1 (11719241_x_at) / Fold change /veh CAMK2N1 (11719241_x_at) / RFU C5orf56 (11738088_a_at) / Fold change /veh C5orf56 (11738088_a_at) / RFU OLFML3 (11715873_a_at) / Fold change /veh OLFML3 (11715873_a_at) / RFU LOC100653217 /// NTM (11731650_a_at) / Fold change /veh LOC100653217 /// NTM (11731650_a_at) / RFU MAPK11 (11762145_a_at) / Fold change /veh MAPK11 (11762145_a_at) / RFU FIZ1 (11724087_x_at) / Fold change /veh FIZ1 (11724087_x_at) / RFU OASL (11726364_x_at) / Fold change /veh OASL (11726364_x_at) / RFU SOX15 (11748057_x_at) / Fold change /veh SOX15 (11748057_x_at) / RFU CD79A (11719716_a_at) / Fold change /veh CD79A (11719716_a_at) / RFU HIST1H1D (11736915_at) / Fold change /veh HIST1H1D (11736915_at) / RFU CASKIN2 (11723855_a_at) / Fold change /veh CASKIN2 (11723855_a_at) / RFU LOC730098 (11760151_x_at) / Fold change /veh LOC730098 (11760151_x_at) / RFU OR4N2 (11742367_at) / Fold change /veh OR4N2 (11742367_at) / RFU PRRT2 (11749266_a_at) / Fold change /veh PRRT2 (11749266_a_at) / RFU SNX32 (11753110_a_at) / Fold change /veh SNX32 (11753110_a_at) / RFU CDHR5 (11726645_a_at) / Fold change /veh CDHR5 (11726645_a_at) / RFU RCAN1 (11760418_a_at) / Fold change /veh RCAN1 (11760418_a_at) / RFU FAM167A (11723789_a_at) / Fold change /veh FAM167A (11723789_a_at) / RFU FAM26E (11764081_at) / Fold change /veh FAM26E (11764081_at) / RFU ISYNA1 (11749810_s_at) / Fold change /veh ISYNA1 (11749810_s_at) / RFU ACY1 (11761880_at) / Fold change /veh ACY1 (11761880_at) / RFU 11764098_at / Fold change /veh 11764098_at / RFU SAMD14 (11745864_x_at) / Fold change /veh SAMD14 (11745864_x_at) / RFU NPB (11741838_a_at) / Fold change /veh NPB (11741838_a_at) / RFU TMPRSS6 (11731388_a_at) / Fold change /veh TMPRSS6 (11731388_a_at) / RFU KRTAP10-2 (11738614_at) / Fold change /veh KRTAP10-2 (11738614_at) / RFU ARHGAP8 /// PRR5-ARHGAP8 (11727945_x_at) / Fold change /veh ARHGAP8 /// PRR5-ARHGAP8 (11727945_x_at) / RFU KRTAP5-7 /// NADSYN1 (11734609_at) / Fold change /veh KRTAP5-7 /// NADSYN1 (11734609_at) / RFU RASL12 (11751679_a_at) / Fold change /veh RASL12 (11751679_a_at) / RFU CDKN2B (11736163_a_at) / Fold change /veh CDKN2B (11736163_a_at) / RFU PRF1 (11729649_at) / Fold change /veh PRF1 (11729649_at) / RFU, ZNF638 /// ZNF638-IT1 / Fold change vs veh, ZNF638 /// ZNF638-IT1 / RFU, PANK3 / Fold change vs veh, PANK3 / RFU, SH3YL1 / Fold change vs veh, SH3YL1 / RFU, ZEB2 / Fold change vs veh, ZEB2 / RFU, NRIP1 / Fold change vs veh, NRIP1 / RFU, PTTG1IP / Fold change vs veh, PTTG1IP / RFU, CAPN2 / Fold change vs veh, CAPN2 / RFU, MED14 / Fold change vs veh, MED14 / RFU, SNORA58 / Fold change vs veh, SNORA58 / RFU, C1orf63 / Fold change vs veh, C1orf63 / RFU, LRRFIP1 / Fold change vs veh, LRRFIP1 / RFU, NDUFAF7 / Fold change vs veh, NDUFAF7 / RFU, SLC12A2 / Fold change vs veh, SLC12A2 / RFU, IBTK / Fold change vs veh, IBTK / RFU, ESF1 / Fold change vs veh, ESF1 / Fold change vs veh, TMEM50B / RFU, TAOK1 / Fold change vs veh, TAOK1 / RFU, ACBD3 / Fold change vs veh, ACBD3 / RFU, TMA16 / Fold change vs veh, TMA16 / RFU, RWDD3 / Fold change vs veh, RWDD3 / RFU, BCAT1 / Fold change vs veh, BCAT1 / RFU, EDEM3 / Fold change vs veh, EDEM3 / RFU, TMEM33 / Fold change vs veh, TMEM33 / RFU, WDR75 / Fold change vs veh, WDR75 / RFU, AHCTF1 / Fold change vs veh, AHCTF1 / RFU, TFRC / Fold change vs veh, TFRC / RFU, ZDHHC17 / Fold change vs veh, ZDHHC17 / RFU, NOM1 / Fold change vs veh, NOM1 / RFU, ARL8B / Fold change vs veh, ARL8B / RFU, ZBTB11 / Fold change vs veh, ZBTB11 / RFU, TAMM41 / Fold change vs veh, TAMM41 / RFU, KIAA1704 /// LOC100996395 / Fold change vs veh, KIAA1704 /// LOC100996395 / RFU, ING1 / Fold change vs veh, ING1 / RFU, TRMT61B / Fold change vs veh, TRMT61B / RFU, FUBP3 / Fold change vs veh, FUBP3 / RFU, TP53 / Fold change vs veh, TP53 / RFU, TNKS2 / Fold change vs veh, TNKS2 / RFU, ZFP14 / Fold change vs veh, ZFP14 / RFU, ACTR2 / Fold change vs veh, ACTR2 / RFU, PPP3R1 / Fold change vs veh, PPP3R1 / RFU, PIK3R1 / Fold change vs veh, PIK3R1 / RFU, HNRNPA1 / Fold change vs veh, HNRNPA1 / RFU, RNF170 / Fold change vs veh, RNF170 / RFU, ZNF28 / Fold change vs veh, ZNF28 / RFU, RNGTT / Fold change vs veh, RNGTT / RFU, OGT / Fold change vs veh, OGT / RFU, BRD1 / Fold change vs veh, BRD1 / RFU, MARS / Fold change vs veh, MARS / RFU, ZNF655 / Fold change vs veh, ZNF655 / RFU, FAHD1 / Fold change vs veh, FAHD1 / RFU, BDP1 / Fold change vs veh, BDP1 / RFU, LRRCC1 / Fold change vs veh, LRRCC1 / RFU, ARID1A / Fold change vs veh, ARID1A / RFU, ZNF146 / Fold change vs veh, ZNF146 / RFU, ZNF330 / Fold change vs veh, ZNF330 / RFU, GPN3 / Fold change vs veh, GPN3 / RFU, C9orf123 / Fold change vs veh, C9orf123 / RFU, N4BP2L2 / Fold change vs veh, N4BP2L2 / RFU, ARFIP1 / Fold change vs veh, ARFIP1 / RFU, FAM179B / Fold change vs veh, FAM179B / RFU, BCL10 / Fold change vs veh, BCL10 / RFU, UHRF1BP1L / Fold change vs veh, UHRF1BP1L / RFU, BET1 / Fold change vs veh, BET1 / RFU, CNOT2 / Fold change vs veh, CNOT2 / RFU, ZNF268 / Fold change vs veh, ZNF268 / Fold change vs veh, ZNF507 / RFU, DGCR2 / Fold change vs veh, DGCR2 / RFU, WDSUB1 / Fold change vs veh, WDSUB1 / Fold change vs veh, HSP90B1 /// MIR3652 / RFU, ADSS / Fold change vs veh, ADSS / RFU, GK / Fold change vs veh, GK / RFU, ZNF148 / Fold change vs veh, ZNF148 / RFU, TAF9 / Fold change vs veh, TAF9 / RFU, SLC1A5 / Fold change vs veh, SLC1A5 / RFU, SLMO2 / Fold change vs veh, SLMO2 / RFU, ABCC4 / Fold change vs veh, ABCC4 / RFU, LOC101060439 /// RAP1B / Fold change vs veh, LOC101060439 /// RAP1B / RFU, RFX7 / Fold change vs veh, RFX7 / RFU, GTPBP10 / Fold change vs veh, GTPBP10 / RFU, CNEP1R1 / Fold change vs veh, CNEP1R1 / RFU, BIVM-ERCC5 /// ERCC5 / Fold change vs veh, BIVM-ERCC5 /// ERCC5 / RFU, ILF3 / Fold change vs veh, ILF3 / RFU 11762660_at / Fold change /veh 11762660_at / RFU VCAN (11757783_s_at) / Fold change /veh VCAN (11757783_s_at) / RFU DDX43 (11728927_at) / Fold change /veh DDX43 (11728927_at) / RFU KRT8 (11758188_x_at) / Fold change /veh KRT8 (11758188_x_at) / RFU NKD1 (11759106_at) / Fold change /veh NKD1 (11759106_at) / RFU SRD5A1 (11742802_a_at) / Fold change /veh SRD5A1 (11742802_a_at) / RFU TPSAB1 /// TPSB2 (11721975_s_at) / Fold change /veh TPSAB1 /// TPSB2 (11721975_s_at) / RFU GSTM3 (11746129_a_at) / Fold change /veh GSTM3 (11746129_a_at) / RFU IL23R (11737362_x_at) / Fold change /veh IL23R (11737362_x_at) / RFU TMEM51 (11727254_a_at) / Fold change /veh TMEM51 (11727254_a_at) / RFU PIWIL2 (11732686_x_at) / Fold change /veh PIWIL2 (11732686_x_at) / RFU ORM1 (11744905_x_at) / Fold change /veh ORM1 (11744905_x_at) / RFU CCDC152 (11743942_at) / Fold change /veh CCDC152 (11743942_at) / RFU ECM1 (11717891_a_at) / Fold change /veh ECM1 (11717891_a_at) / RFU IL23R (11748794_a_at) / Fold change /veh IL23R (11748794_a_at) / RFU TNFAIP8L3 (11732012_x_at) / Fold change /veh TNFAIP8L3 (11732012_x_at) / RFU MBOAT4 (11741988_at) / Fold change /veh MBOAT4 (11741988_at) / RFU 11764193_at / Fold change /veh 11764193_at / RFU TMEM53 (11763286_at) / Fold change /veh TMEM53 (11763286_at) / RFU MAGEB2 (11727129_at) / Fold change /veh MAGEB2 (11727129_at) / RFU TMEM200A (11744735_a_at) / Fold change /veh TMEM200A (11744735_a_at) / RFU CCDC152 (11751479_a_at) / Fold change /veh CCDC152 (11751479_a_at) / RFU FAM211A (11726209_a_at) / Fold change /veh FAM211A (11726209_a_at) / RFU RGS16 (11746705_a_at) / Fold change /veh RGS16 (11746705_a_at) / RFU VCAN (11755009_s_at) / Fold change /veh VCAN (11755009_s_at) / RFU RHOB (11743442_s_at) / Fold change /veh RHOB (11743442_s_at) / RFU RGS16 (11720943_a_at) / Fold change /veh RGS16 (11720943_a_at) / RFU RGS16 (11720944_at) / Fold change /veh RGS16 (11720944_at) / RFU, VPS4B / Fold change vs veh, VPS4B / RFU, CREB1 / Fold change vs veh, CREB1 / RFU, DNAJC13 / Fold change vs veh, DNAJC13 / RFU, GNAQ / Fold change vs veh, GNAQ / RFU, CDK5R1 / Fold change vs veh, CDK5R1 / RFU, ZRANB3 / Fold change vs veh, ZRANB3 / RFU, CUL4A / Fold change vs veh, CUL4A / RFU, CCNY / Fold change vs veh, CCNY / RFU, UFL1 / Fold change vs veh, UFL1 / RFU, COG3 / Fold change vs veh, COG3 / RFU, DIAPH2 / Fold change vs veh, DIAPH2 / RFU, SKA2 / Fold change vs veh, SKA2 / RFU, AFF3 / Fold change vs veh, AFF3 / RFU, LMF1 / Fold change vs veh, LMF1 / RFU, IPO11 / Fold change vs veh, IPO11 / RFU, DFFB / Fold change vs veh, DFFB / RFU, FOXP1 / Fold change vs veh, FOXP1 / RFU, CARD8 / Fold change vs veh, CARD8 / RFU, STRN3 / Fold change vs veh, STRN3 / RFU, ADK / Fold change vs veh, ADK / RFU, RASSF2 / Fold change vs veh, RASSF2 / RFU, WIPF1 / Fold change vs veh, WIPF1 / RFU, LARP1B / Fold change vs veh, LARP1B / RFU, RASA1 / Fold change vs veh, RASA1 / RFU, RB1 / Fold change vs veh, RB1 / RFU, PPFIA1 / Fold change vs veh, PPFIA1 / RFU, MAT2A / Fold change vs veh, MAT2A / RFU, CCT5 / Fold change vs veh, CCT5 / RFU, WDR92 / Fold change vs veh, WDR92 / RFU, CUX1 / Fold change vs veh, CUX1 / RFU, TTC7A / Fold change vs veh, TTC7A / RFU, TMEM135 / Fold change vs veh, TMEM135 / RFU, DEPTOR / Fold change vs veh, DEPTOR / RFU, CPM / Fold change vs veh, CPM / RFU, DNAJB6 / Fold change vs veh, DNAJB6 / RFU, CACNA2D3 / Fold change vs veh, CACNA2D3 / RFU, DTX4 / Fold change vs veh, DTX4 / RFU, TFCP2 / Fold change vs veh, TFCP2 / RFU, GMCL1 /// GMCL1P1 / Fold change vs veh, GMCL1 /// GMCL1P1 / RFU, AEBP2 / Fold change vs veh, AEBP2 / RFU, SNHG1 /// SNORD22 /// SNORD25 /// SNORD26 /// SNORD27 /// SNORD28 /// SNORD29 /// SNORD31 / Fold change vs veh, SNHG1 /// SNORD22 /// SNORD25 /// SNORD26 /// SNORD27 /// SNORD28 /// SNORD29 /// SNORD31 / Fold change (Aza/veh), C12orf56 (ProbeSet 11735607_a_at) / Fold change (ACY-1035/veh), C12orf56 (ProbeSet 11735607_a_at) / Fold change (Aza/veh), FGFR1OP (ProbeSet 11751329_s_at) / Fold change (ACY-1035/veh), FGFR1OP (ProbeSet 11751329_s_at) / Fold change (Aza/veh), VPS36 (ProbeSet 11739960_a_at) / Fold change (ACY-1035/veh), VPS36 (ProbeSet 11739960_a_at) / RFU SYPL1 (11715823_x_at) / Fold change /veh SYPL1 (11715823_x_at) / RFU IGFBP7 (11715501_s_at) / Fold change /veh IGFBP7 (11715501_s_at) / RFU REEP3 (11722064_at) / Fold change /veh REEP3 (11722064_at) / RFU IGLL1 (11728026_x_at) / Fold change /veh IGLL1 (11728026_x_at): dose or concentration left out as unconfirmed
Settings: MV-4-11 cells, 48 hours

Nc1ncn([C@@H]2O[C@H](CO)[C@@H](O)[C@H]2O)c(=O)n1 [azacitidine]
Fold change /veh REEP3 (11722064_at): 0.73
